Experimental data from ChEMBL document CHEMBL1201862, “PubChem BioAssay data set” (2004).
Calls of active or inactive are those of the source. Rule as the data show it: actives have a measured IC50 and inactives only a lower limit.

Molecular target: Envelope glycoprotein gp160 (Human immunodeficiency virus 1, UniProt Q6QLK5)
Test: inhibitors of HIV fusion peptide binding, primary screen, biochemical, uHTS, fluorescence dequenching (AID 1986)

Sequence of Envelope glycoprotein gp160 (Q6QLK5 whole entry, the tested form may be a part): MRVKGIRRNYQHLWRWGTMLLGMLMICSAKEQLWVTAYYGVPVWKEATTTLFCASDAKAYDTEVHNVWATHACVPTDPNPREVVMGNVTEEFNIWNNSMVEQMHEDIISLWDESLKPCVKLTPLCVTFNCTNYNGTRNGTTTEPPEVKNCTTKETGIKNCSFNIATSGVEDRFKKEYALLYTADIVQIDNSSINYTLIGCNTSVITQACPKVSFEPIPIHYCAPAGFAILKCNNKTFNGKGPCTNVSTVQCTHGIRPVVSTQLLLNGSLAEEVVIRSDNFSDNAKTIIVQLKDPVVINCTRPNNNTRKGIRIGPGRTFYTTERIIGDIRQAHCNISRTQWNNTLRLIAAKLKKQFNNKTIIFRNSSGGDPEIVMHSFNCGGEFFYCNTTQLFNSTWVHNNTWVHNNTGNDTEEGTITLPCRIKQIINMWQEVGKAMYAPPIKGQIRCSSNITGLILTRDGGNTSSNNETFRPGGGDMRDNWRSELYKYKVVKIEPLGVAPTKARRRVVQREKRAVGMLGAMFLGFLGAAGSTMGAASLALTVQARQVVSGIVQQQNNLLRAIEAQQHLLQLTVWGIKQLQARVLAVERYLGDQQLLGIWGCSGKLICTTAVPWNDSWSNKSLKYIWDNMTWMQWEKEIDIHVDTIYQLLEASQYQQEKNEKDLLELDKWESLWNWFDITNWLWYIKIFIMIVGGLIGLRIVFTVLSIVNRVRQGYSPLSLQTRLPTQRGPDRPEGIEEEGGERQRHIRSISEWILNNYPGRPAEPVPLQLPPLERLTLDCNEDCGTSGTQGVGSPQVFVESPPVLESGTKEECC

SMILES | IC50
O=C(O)CSc1nc(-c2ccc(Cl)cc2)nc2c1oc1ccccc12 | 15.4 µM (active)
COc1cccc(-c2nc(SCC(=O)Nc3nc(-c4ccccc4)c(C)s3)[nH]c(=O)c2C#N)c1 | 10.3 µM (active)
